According to ChEMBL document CHEMBL1201862, “PubChem BioAssay data set” (2004):
Active and inactive are the calls of the source. Rule as the data show it, for most assays here: actives have a measured IC50 and inactives only a lower limit.

Tests used:
Kallikrein-7 = Kallikrein-7 (Homo sapiens, UniProt P49862); experiment: Fluorescence Intensity-based biochemical primary high throughput dose response assay to identify activators of kallikrein-7 (K7) zymogen.
[1] = target: T1, Voltage-gated N-type calcium channel alpha-1B subunit/Amyloid beta A4 precursor protein-binding family A member 1 (Homo sapiens, UniProt Q00975+Q02410); experiment: disruptors of Mint-PDZ/N-type channel peptide interaction – biochemical, HTRF, SAR follow-up (AID 2489); format: functional
[2] = target: Eukaryotic translation initiation factor 4E (Mus musculus, UniProt P63073); experiment: blockers of eIF4G binding by eIF4E – biochemical, TR-FRET, dose response (AID 855); format: functional;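 also: potency for disrupting eIF4E binding to eIF4GI seen as loss of FRET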
[3] = target: T1, Voltage-gated N-type calcium channel alpha-1B subunit/Amyloid beta A4 precursor protein-binding family A member 1; experiment: disruptors of Mint-PDZ/N-type channel peptide interaction – biochemical, HTRF, set 2, SAR follow-up (AID 434980); format: functional
[4] = target: T1, Voltage-gated N-type calcium channel alpha-1B subunit/Amyloid beta A4 precursor protein-binding family A member 1; format: protein assay
SUMO E1/E2 = SUMO E1/E2 (Homo sapiens, UniProt P63279+Q9UBE0+Q9UBT2); experiment: SAR analysis of SUMOylation using HTRF in an in-Vitro dose response assay. [Related pubchem assays (depositor defined):AID2006, AID2011, AID2018, AID2069, AID2658]; format: functional
[5] = target: T1, Voltage-gated N-type calcium channel alpha-1B subunit/Amyloid beta A4 precursor protein-binding family A member 1; format: protein assay; remark: listed apart in the source
[6] = target: Induced myeloid leukemia cell differentiation protein Mcl-1 (Homo sapiens, UniProt Q07820); format: functional
[7] = target: T2, Type-1 angiotensin II receptor (Homo sapiens, UniProt P30556); experiment: agonist activity at AGTR1 – cell-based, uHTS hits, selectivity assay for APJ receptor agonist project, dose response (AID 488865); format: functional;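 also: beta-arrestin recruitment to AT1 measured by enzyme fragment complementation luminescence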
T2 sequence (P30556 whole entry): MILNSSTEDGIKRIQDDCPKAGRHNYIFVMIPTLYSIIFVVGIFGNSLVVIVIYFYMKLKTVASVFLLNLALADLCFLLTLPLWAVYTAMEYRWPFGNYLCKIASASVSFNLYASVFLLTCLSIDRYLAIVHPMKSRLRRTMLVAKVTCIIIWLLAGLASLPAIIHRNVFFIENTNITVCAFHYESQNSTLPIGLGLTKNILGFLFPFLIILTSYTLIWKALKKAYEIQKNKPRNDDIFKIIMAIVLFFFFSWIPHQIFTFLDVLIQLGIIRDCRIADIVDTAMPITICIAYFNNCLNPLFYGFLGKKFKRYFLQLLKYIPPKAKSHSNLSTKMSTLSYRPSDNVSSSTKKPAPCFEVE

[8] = target: T3, Ubiquitin-conjugating enzyme E2 N (Homo sapiens, UniProt P61088); format: functional
T3 sequence (P61088 whole entry): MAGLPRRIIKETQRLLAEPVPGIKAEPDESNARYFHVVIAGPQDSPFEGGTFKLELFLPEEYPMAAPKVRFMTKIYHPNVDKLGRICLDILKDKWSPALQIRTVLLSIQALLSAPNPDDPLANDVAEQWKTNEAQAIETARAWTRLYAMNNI

[9] = target: T3, Ubiquitin-conjugating enzyme E2 N; format: functional; remark: listed apart in the source
Bcl-2-related protein A1 = target: T4, Bcl-2-related protein A1 (Mus musculus, UniProt Q07440); format: functional;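 also: confirmatory dose–response counterscreen on Bfl-1, used to check hits from a UBC13 polyubiquitin inhibitor campaign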
T4 sequence (Q07440 whole entry): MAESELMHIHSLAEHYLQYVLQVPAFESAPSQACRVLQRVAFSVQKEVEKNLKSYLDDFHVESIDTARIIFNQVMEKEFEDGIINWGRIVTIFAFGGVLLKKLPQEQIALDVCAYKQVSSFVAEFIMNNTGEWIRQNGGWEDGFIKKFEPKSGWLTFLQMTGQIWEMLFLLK

[10] = target: DNA dC->dU-editing enzyme APOBEC-3G (Homo sapiens, UniProt Q9HC16); experiment: Dose Response confirmation of small molecule APOBEC3G DNA Deaminase Inhibitors via a fluorescence-based single-stranded DNA deaminase assay. [Related pubchem assays (depositor defined):AID493012, AID493028]; format: functional
Phosphomannomutase 2 = Phosphomannomutase 2 (Homo sapiens, UniProt O15305); experiment: Counter screen SAR assay for PMM2 inhibitors via a fluorescence intensity assay. [Related pubchem assays (depositor defined):AID1545, AID1574]
[11] = THP-1 cell cytotoxicity, dose response, cytotoxicity control for non-replicating M. tuberculosis project (AID 489025); format: functional
[12] = target: T5, Mannose-6-phosphate isomerase (Homo sapiens, UniProt P34949); experiment: MPI inhibition at elevated mannose 6-phosphate – biochemical, fluorescence intensity, high mannose 6-phosphate, primary screen (AID 1220)
T5 sequence (P34949 whole entry): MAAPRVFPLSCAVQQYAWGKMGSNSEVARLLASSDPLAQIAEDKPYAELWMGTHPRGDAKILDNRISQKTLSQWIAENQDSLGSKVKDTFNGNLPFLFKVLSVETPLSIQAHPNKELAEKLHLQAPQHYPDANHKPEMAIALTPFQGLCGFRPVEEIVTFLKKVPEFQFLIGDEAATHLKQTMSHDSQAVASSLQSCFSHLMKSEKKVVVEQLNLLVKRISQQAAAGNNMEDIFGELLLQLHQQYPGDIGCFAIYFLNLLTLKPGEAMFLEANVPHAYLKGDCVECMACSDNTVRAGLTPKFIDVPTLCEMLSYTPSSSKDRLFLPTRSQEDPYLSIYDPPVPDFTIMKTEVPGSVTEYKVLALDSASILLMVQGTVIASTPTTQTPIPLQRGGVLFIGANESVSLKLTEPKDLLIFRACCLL

[13] = target: DNA dC->dU-editing enzyme APOBEC-3A (Homo sapiens, UniProt P31941); experiment: A3A deaminase inhibition for selectivity – biochemical, dose response (AID 504722); format: functional
[14] = target: Glucose-6-phosphate 1-dehydrogenase (Homo sapiens, UniProt P11413); experiment: inhibition of Homo sapiens G6PD, dose series – biochemical, fluorescence, selectivity assay for P. falciparum G6PD inhibitor project, dose response (AID 504792); format: functional
[15] = target: T5, Mannose-6-phosphate isomerase; experiment: MPI enzyme activity inhibition – biochemical, fluorescence intensity, coupled assay, primary screen (AID 1209)
Large T antigen = Large T antigen (Simian virus 40, UniProt P03070); format: functional, Betapolyomavirus macacae;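 also: Confirmatory-stage PubChem screen for compounds that inhibit SV40 T antigen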
[16] = target: T5, Mannose-6-phosphate isomerase; experiment: phosphomannose isomerase inhibition – biochemical, fluorescence intensity, confirmation (AID 1535)

T1 sequence (Q00975 whole entry): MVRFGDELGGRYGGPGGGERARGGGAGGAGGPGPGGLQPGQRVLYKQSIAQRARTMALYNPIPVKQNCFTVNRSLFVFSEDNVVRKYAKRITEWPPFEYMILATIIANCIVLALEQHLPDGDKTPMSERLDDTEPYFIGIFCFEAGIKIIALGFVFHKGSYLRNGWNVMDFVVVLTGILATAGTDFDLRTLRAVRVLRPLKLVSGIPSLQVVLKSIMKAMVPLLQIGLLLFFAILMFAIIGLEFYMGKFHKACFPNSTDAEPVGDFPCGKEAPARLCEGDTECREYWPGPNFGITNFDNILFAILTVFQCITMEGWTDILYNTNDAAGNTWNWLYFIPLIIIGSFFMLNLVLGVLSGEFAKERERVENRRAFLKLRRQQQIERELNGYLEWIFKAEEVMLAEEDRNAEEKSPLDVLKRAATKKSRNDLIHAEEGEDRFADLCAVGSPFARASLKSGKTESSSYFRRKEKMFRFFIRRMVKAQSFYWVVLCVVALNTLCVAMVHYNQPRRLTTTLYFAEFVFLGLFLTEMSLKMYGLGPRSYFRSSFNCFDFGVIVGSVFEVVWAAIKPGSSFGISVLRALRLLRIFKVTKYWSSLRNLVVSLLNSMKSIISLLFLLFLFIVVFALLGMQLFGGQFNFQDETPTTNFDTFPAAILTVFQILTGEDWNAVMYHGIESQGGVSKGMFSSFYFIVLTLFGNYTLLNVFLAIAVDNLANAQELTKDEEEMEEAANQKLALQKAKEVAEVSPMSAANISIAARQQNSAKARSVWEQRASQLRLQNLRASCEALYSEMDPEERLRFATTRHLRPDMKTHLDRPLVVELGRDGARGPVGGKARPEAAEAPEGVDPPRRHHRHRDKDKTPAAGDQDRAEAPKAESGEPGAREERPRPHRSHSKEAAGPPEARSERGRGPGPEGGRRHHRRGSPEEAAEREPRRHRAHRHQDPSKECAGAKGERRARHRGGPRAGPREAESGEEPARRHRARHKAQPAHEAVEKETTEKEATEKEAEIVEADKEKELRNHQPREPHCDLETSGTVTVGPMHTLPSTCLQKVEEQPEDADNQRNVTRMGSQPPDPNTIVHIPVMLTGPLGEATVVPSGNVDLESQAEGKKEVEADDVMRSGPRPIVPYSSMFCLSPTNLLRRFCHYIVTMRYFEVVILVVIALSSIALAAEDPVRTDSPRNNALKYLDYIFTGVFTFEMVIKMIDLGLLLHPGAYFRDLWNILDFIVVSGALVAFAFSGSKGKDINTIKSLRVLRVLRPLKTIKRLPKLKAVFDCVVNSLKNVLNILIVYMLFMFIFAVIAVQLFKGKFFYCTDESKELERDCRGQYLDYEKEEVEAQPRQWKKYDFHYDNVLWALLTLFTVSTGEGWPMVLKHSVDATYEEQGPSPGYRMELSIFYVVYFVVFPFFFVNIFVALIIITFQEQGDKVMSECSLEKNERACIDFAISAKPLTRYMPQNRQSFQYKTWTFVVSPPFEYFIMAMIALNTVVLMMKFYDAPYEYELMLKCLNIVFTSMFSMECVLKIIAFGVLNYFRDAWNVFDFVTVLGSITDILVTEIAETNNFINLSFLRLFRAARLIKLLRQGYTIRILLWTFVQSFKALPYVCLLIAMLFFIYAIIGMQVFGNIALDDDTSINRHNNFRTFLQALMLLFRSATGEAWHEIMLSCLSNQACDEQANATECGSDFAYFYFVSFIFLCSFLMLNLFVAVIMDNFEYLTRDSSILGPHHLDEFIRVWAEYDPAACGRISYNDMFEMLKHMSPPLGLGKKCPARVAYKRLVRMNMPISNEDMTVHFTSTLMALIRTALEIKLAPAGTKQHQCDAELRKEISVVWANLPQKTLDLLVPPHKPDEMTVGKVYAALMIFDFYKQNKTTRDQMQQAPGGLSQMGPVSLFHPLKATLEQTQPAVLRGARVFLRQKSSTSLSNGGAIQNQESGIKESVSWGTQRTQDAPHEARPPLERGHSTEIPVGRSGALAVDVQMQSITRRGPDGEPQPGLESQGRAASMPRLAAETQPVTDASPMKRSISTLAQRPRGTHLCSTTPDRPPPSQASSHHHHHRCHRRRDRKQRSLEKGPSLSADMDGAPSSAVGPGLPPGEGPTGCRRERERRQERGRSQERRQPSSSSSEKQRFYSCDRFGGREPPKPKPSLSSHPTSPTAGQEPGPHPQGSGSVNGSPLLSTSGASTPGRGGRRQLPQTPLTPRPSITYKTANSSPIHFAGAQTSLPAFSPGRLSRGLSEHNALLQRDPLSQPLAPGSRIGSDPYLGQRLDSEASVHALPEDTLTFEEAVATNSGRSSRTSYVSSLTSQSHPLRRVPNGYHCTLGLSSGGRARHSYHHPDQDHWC
T1 sequence (Q02410 whole entry): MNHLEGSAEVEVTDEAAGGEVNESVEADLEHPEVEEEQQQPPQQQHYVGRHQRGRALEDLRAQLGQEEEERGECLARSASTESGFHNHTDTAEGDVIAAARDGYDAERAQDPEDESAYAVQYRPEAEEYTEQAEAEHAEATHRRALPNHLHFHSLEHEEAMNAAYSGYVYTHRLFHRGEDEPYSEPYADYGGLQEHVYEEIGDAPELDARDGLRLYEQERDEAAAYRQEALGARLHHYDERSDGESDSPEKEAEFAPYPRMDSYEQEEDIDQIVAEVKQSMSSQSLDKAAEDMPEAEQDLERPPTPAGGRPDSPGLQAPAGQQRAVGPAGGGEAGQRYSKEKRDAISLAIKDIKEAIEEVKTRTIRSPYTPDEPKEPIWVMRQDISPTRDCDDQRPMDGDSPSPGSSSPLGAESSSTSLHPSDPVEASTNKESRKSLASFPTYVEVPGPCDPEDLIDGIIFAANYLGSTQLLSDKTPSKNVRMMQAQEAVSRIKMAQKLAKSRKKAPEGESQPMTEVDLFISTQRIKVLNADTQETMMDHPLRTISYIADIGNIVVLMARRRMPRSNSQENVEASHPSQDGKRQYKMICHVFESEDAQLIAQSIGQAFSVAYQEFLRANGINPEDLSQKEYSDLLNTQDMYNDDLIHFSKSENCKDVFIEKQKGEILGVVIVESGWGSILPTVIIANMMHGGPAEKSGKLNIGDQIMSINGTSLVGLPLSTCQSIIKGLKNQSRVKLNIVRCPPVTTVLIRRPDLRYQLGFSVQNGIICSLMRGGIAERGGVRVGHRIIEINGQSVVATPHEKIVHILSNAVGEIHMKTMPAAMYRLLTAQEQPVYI
Chain of SUMO E1/E2 (Q9UBE0 whole entry): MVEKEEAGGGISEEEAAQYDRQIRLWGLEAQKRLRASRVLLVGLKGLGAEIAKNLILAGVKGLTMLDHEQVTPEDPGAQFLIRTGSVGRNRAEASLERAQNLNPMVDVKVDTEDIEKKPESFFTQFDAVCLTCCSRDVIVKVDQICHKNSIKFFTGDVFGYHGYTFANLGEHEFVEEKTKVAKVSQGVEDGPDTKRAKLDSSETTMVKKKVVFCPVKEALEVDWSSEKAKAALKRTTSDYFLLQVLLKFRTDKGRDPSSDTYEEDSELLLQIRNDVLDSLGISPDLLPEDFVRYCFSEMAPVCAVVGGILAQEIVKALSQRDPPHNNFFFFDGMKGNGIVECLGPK
Chain of SUMO E1/E2 (Q9UBT2 whole entry): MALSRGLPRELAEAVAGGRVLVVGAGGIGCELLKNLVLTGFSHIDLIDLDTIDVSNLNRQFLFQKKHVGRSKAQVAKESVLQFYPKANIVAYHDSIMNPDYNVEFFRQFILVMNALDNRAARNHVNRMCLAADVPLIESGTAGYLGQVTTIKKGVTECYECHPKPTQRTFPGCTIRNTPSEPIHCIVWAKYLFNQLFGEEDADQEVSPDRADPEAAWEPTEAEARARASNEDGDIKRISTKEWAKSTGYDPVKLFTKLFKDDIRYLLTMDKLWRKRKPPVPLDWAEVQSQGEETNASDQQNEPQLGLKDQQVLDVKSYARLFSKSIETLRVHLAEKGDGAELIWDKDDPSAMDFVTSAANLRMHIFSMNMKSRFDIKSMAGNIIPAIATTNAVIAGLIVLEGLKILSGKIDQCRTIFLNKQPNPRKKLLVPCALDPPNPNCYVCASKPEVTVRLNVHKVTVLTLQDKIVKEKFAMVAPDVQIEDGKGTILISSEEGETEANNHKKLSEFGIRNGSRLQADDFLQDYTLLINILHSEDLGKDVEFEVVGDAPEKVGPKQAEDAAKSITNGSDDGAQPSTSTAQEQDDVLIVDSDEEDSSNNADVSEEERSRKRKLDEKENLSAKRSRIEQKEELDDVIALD
Chain of SUMO E1/E2 (P63279 whole entry): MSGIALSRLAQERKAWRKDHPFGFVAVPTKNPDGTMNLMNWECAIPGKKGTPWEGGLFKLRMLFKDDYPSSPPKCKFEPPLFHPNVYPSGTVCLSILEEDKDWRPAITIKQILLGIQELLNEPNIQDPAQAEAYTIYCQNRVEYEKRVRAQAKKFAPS
Chain of Kallikrein-7 (P49862 whole entry): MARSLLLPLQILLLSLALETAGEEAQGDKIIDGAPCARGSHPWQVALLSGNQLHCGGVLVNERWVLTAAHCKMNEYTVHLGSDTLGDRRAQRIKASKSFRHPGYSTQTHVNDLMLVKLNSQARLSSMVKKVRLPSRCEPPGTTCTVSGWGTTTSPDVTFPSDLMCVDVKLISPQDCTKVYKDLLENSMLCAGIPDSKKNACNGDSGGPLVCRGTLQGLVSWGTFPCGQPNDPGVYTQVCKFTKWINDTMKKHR
Chain of Induced myeloid leukemia cell differentiation protein Mcl-1 (Q07820 whole entry, the tested form may be a part): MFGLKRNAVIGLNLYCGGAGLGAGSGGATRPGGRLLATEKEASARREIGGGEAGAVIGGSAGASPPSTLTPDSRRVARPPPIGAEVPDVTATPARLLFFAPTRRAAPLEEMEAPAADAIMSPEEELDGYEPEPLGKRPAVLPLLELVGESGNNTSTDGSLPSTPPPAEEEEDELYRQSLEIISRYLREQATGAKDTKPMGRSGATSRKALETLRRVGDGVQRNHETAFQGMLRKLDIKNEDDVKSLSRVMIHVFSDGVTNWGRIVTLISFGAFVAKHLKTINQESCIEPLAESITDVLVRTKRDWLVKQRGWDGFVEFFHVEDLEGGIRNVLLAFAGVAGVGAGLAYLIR

CCN(CC)C(=O)COC(=O)c1cc(-c2ccco2)nc2ccccc12
EC50 (Kallikrein-7): 23 µM (inactive) | IC50 [1]: 13.9 µM (active) | IC50 [2]: 50 µM (inactive) | IC50 [3]: 19.2 µM (active) | IC50 [4]: 12.7 µM (active) | IC50 (SUMO E1/E2): 2.71 µM (active) | IC50 [5]: 4.92 µM (active) | IC50 [6]: 3.26 µM (active)

CCOc1cc2[nH]c(=S)n(CCCC(=O)NCc3ccccn3)c(=O)c2cc1OCC
EC50 [7]: > 100 µM (inactive)

O=C(NCCCN1CCN(c2ccc(F)cc2)CC1)C1CCCN(c2ncnc3c2nc2n3CCCCC2)C1 (stereo unspecified)
IC50 [8]: 8.08 µM (active) | IC50 [9]: 3.64 µM (active) | IC50 (Bcl-2-related protein A1): > 20 µM (inactive)

Cc1ccnc(-n2sc3ccccc3c2=O)n1
IC50 [10]: 15.4 µM (active) | IC50 (Phosphomannomutase 2): 65.9 µM (active) | CC50 [11]: > 40 µM (active) | IC50 [12]: 17.8 µM (active) | IC50 [13]: > 100 µM (inactive) | IC50 [14]: 36.1 µM (inactive) | IC50 [15]: 11.2 µM (active) | IC50 (Large T antigen): 12.5 µM (active) | IC50 [16]: 4.43 µM (active)
